Results reported in patent publication US9775902B2, “Compounds and methods for treatment of stroke” (FIBROGEN, INC, priority 2006, dated 2017).

Columns and labels:
[1] = test system: erythropoietin (EPO); experiment: EPO expression in Hep3B cells (QUANTIKINE immunoassay of conditioned media); type: cell-based, Human; settings: for Fold Increase Over Control: EPO, vs 1% DMSO control; for EPO: conditioned media after overnight incubation with compound
Procedure: The effect of compounds of the present invention on expression of cytoprotective and neuroprotective factors in cells was evaluated as follows. Human cells derived from hepatocarcinoma (Hep3B) tissue (see, e.g., American Type Culture Collection, Manassas Va.) were seeded into 35 mm culture dishes and grown at 37° C., 20% O2, 5% CO2 in Minimal Essential Medium (MEM), Earle's balanced salt solution (Mediatech Inc., Herndon Va.), 2 mM L-glutamine, 0.1 mM non-essential amino acids, 1 mM sodium pyruvate, and 10% FBS. When cell layers reached confluence, the media was replaced with OPTI-MEM media (Invitrogen Life Technologies, Carlsbad Calif.) and cell layers were incubated for approximately 24 hours in 20% O2, 5% CO2 at 37° C. Various compounds of the present invention or 1% DMSO (negative control) were then added to existing media and incubation was continued overnight.
Following incubation, the conditioned media was collected from cell cultures and analyzed for erythropoietin (EPO) expression using a QUANTIKINE immunoassay (R&D Systems, Inc., Minneapolis Minn.) according to the manufacturer's instructions.

[2] = test system: erythropoietin (EPO); experiment: EPO expression in Kelly neuroblastoma cells; type: cell-based; settings: for EPO: conditioned media after overnight incubation
Procedure: (§1) The effect of compounds of the present invention on expression of cytoprotective and neuroprotective factors in neuroblastoma cells was evaluated as follows. Kelly neuroblastoma cells (see, e.g., DSMZ, cat# ACC-355, Braunschweig Germany) were treated with various compounds of the present invention or 1% DMSO (negative control). Following an overnight incubation, the conditioned media was collected from cell cultures and analyzed for erythropoietin (EPO) and vascular endothelial growth factor (VEGF) expression using a QUANTIKINE immunoassay (R&D Systems, Inc., Minneapolis Minn.) according to the manufacturer's instructions.

[3] = test system: vascular endothelial growth factor (VEGF); experiment: VEGF expression in Kelly neuroblastoma cells; type: cell-based; settings: for VEGF: conditioned media after overnight incubation
Procedure: as §1

[4] = test system: erythropoietin; experiment: Plasma EPO in mice after intravenous injection; type: in vivo, Swiss Webster mice; settings: mouse plasma, 20 mg/kg i.v., four hours after injection; for fold induction at 20 mg/kg: iv, 4 h, read-out: EPO Fold Increase; for EPO: mouse EPO ELISA kit (**)
Procedure: (§2) The effect of compounds of the present invention on expression of cytoprotective and neuroprotective factors in vivo was evaluated as follows. In one series of experiments, male Swiss Webster mice (29-34 g) were administered various compounds of the present invention via intravenous injection into the caudal tail vein. Animals treated by intravenous injection received a 6 ml/kg volume of either 5% Dextrose with an equimolar amount of NaOH or Meglumine (vehicle control) or 20 mg/kg of a compound of the present invention in 5% dextrose with an equimolar amount of NaOH or Meglumine. Four hours after injection, the animals were anesthetized and exsanguinated. Plasma samples were collected in EDTA and heparin coated microtainer tubes. Plasma samples were assayed for erythropoietin and VEGF using commercially-available ELISA kits purchased from R & D Systems (Minneapolis Minn.).

[5] = test system: VEGF; experiment: Plasma VEGF in mice after intravenous injection; type: in vivo, Swiss Webster mice; settings: mouse plasma, 20 mg/kg i.v., four hours after injection; for fold induction at 20 mg/kg: iv, 4 h, read-out: VEGF Fold Increase
Procedure: as §2

Structure (SMILES)	Fold Increase Over Control [1]	EPO [1] [mIU/ml]	EPO Fold Increase [2]	EPO [2] [mIU/ml]	VEGF Fold Increase [3]	VEGF [3] [pg/mL]	fold induction at 20 mg/kg [4]	EPO [4] [pg/mL]	fold induction at 20 mg/kg [5]	VEGF [5] [pg/mL]
O=C(O)CNC(=O)c1nc(Br)c2cc(Br)sc2c1O [Compound AD, [(2,4-Dibromo-7-hydroxy-thieno[3,2-c]pyridine-6-carbonyl)-amino]-acetic acid]	6.5	34.9	7.3	138.2	3.5	5123.0	27.4	1997	2.54	66
CCc1c(O)c(C(=O)NCC(=O)O)nc2cc(Cl)ccc12 [Compound AT, [(7-Chloro-4-ethyl-3-hydroxy-quinoline-2-carbonyl)-amino]-acetic acid]	30.0	81.0	31.08	587.5	8.3	11350	3.84	169	1.02	43
N#Cc1nc(C(=O)NCC(=O)O)c(O)c2sccc12 [Compound AH, [(4-Cyano-7-hydroxy-thieno[3,2-c]pyridine-6-carbonyl)-amino]-acetic acid]	7.1	13.4	11.95	225.8	4.5	6590	11.6	1242	1.76	44
O=C(O)CNC(=O)c1nc(-c2ccoc2)c2ccsc2c1O [Compound AI, [(4-Furan-3-yl-7-hydroxy-thieno[3,2-c]pyridine-6-carbonyl)-amino]-acetic acid]	6.1	7.9	17.02	321.6	4.8	7003	1.96	221	0.91	20
O=C(O)CNC(=O)c1nc2cc(-c3ccc(Cl)cc3)sc2cc1O [Compound Q, {[2-(4-Chloro-phenyl)-6-hydroxy-thieno[3,2-b]pyridine-5-carbonyl]-amino}-acetic acid]	4.8	37.1	2.80	52.9	4.4	6369	1.61	17.1	1.28	50
